{"source": "patent US12419951B2", "about": "“Preparation of zinc risedronate micro/nano adjuvant and use thereof as vaccine adjuvant” (priority 2019, dated 2025)", "test_system": "hepatitis B therapeutic protein", "conditions": "same risedronate content as Zn-risedronic acid (1/0.125) group", "protocol": "Using the experimental procedure described in Example 4, mice were immunized with zinc risedronate adjuvant in combination with hepatitis B therapeutic protein by intramuscular injection, and serum antibody titers were detected. The specific method was as follows:\nExperimental animals: Balb/C mice, 6-8 weeks, 5 mice/group, female.\nImmunization protocol: antigen 1.2 μg/mouse, adjuvant and hepatitis B therapeutic protein were mixed at a volume ratio of 1:1 to form a vaccine, and then injected intramuscularly to mice, 150 μL per mouse, and 75 μL on each hind leg. The immunization was performed on the 0th, 2nd, 3rd, 4th, 5th and 6th week, 1.2 μg of antigen per mouse, blood samples were collected from eye socket after the 6th week, and ELISA was used to determine the levels of specific antibodies in serum."}
{"smiles": "O=P(O)(O)C(O)(Cc1cccnc1)P(=O)(O)O", "note": "[sodium risedronate, Risedronate sodium]", "values": [{"measurement": "difference in humoral immune response compared with aluminum adjuvant", "value": "no statistically significant difference"}, {"measurement": "humoral immune stimulation effect", "value": "a certain humoral immune stimulation effect"}]}
